Measurements taken from ChEMBL document CHEMBL4428125, “8-Substituted 1,3-dimethyltetrahydropyrazino[2,1-f]purinediones: Water-soluble adenosine receptor antagonists and monoamine oxidase B inhibitors” (Bioorg Med Chem, 2016).

Experiments:
Adenosine receptor A3 = target: T1, Adenosine receptor A3 (Homo sapiens, UniProt P0DMS8); test: Displacement of [3H]PSB-11 from human A3 receptor expressed in CHO cell membrane by liquid scintillation counting method relative to control; type: cell membranes
T1 sequence (P0DMS8 whole entry): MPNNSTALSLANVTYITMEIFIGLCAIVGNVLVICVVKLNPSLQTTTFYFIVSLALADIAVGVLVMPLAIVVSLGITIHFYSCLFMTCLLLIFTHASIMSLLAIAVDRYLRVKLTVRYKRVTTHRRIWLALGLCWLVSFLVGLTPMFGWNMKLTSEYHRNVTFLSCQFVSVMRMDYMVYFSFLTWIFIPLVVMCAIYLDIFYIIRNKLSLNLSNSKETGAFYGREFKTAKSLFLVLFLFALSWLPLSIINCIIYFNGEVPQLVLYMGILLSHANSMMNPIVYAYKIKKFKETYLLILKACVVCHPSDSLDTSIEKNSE

[1] = target: T2, Amine oxidase [flavin-containing] A (Homo sapiens, UniProt P21397); test: Inhibition of recombinant human MAO-A expressed in baculovirus infected BTI insect cells preincubated for 30 mins followed by addition of p-tyramine as substrate measured over 45 mins by Amplex Red MAO assay
T2 sequence (P21397 whole entry): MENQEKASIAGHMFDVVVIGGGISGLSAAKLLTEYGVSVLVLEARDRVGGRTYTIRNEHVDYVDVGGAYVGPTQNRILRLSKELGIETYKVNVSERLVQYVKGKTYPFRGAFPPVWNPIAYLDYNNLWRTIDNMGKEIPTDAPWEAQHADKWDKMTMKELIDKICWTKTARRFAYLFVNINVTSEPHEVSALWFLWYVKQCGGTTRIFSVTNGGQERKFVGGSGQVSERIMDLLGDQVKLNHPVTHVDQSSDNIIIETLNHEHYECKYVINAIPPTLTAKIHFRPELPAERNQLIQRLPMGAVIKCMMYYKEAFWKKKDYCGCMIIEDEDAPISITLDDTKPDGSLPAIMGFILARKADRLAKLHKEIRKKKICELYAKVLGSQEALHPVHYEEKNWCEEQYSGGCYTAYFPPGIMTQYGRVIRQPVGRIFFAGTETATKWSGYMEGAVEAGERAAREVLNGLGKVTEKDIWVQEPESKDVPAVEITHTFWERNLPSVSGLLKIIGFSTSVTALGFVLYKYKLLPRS

[2] = target: T2, Amine oxidase [flavin-containing] A; test: Inhibition of recombinant human MAO-A expressed in baculovirus infected BTI insect cells at 10 uM preincubated for 30 mins followed by addition of p-tyramine as substrate measured over 45 mins by Amplex Red MAO assay relative to control; details: 0.75 h
[3] = target: T3, Amine oxidase [flavin-containing] B (Rattus norvegicus, UniProt P19643); test: Inhibition of recombinant rat MAO-B preincubated for 30 mins followed by addition of p-tyramine as substrate measured over 45 mins by Amplex Red MAO assay
T3 sequence (P19643 whole entry): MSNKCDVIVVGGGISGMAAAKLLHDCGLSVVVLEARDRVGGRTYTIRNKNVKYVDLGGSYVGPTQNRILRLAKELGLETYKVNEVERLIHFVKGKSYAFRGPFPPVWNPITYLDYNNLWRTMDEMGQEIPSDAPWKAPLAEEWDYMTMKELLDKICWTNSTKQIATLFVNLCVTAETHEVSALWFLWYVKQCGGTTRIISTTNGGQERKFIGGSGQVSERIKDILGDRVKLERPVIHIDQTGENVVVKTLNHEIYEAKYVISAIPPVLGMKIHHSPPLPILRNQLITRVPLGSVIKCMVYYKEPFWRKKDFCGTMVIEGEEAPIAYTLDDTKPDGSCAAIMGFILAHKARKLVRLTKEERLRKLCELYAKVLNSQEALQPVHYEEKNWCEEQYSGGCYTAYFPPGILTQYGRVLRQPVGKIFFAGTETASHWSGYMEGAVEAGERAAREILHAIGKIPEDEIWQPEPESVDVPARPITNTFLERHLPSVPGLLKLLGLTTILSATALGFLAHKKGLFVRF

Adenosine receptor A1 = target: T4, Adenosine receptor A1 (Homo sapiens, UniProt P30542); test: Displacement of [3H]CCPA from human A1 receptor expressed in CHO cell membrane by liquid scintillation counting method; type: cell membranes
T4 sequence (P30542 whole entry): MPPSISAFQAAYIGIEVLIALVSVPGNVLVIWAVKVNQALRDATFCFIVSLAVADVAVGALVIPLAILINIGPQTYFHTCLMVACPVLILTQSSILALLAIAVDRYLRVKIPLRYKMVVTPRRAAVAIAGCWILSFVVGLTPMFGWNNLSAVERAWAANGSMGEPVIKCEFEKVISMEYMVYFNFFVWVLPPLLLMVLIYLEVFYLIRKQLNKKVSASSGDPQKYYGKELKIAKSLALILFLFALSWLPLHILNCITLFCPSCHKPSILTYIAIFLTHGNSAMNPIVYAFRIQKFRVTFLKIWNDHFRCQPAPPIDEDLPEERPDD

Adenosine receptor A2a [4] = target: Adenosine receptor A2a (Homo sapiens, UniProt P29274); test: Displacement of [3H]MSX from human A2A receptor measured after 30 mins by liquid scintillation counting method
Sequence of Adenosine receptor A2a (Homo sapiens, UniProt P29274) (P29274 whole entry): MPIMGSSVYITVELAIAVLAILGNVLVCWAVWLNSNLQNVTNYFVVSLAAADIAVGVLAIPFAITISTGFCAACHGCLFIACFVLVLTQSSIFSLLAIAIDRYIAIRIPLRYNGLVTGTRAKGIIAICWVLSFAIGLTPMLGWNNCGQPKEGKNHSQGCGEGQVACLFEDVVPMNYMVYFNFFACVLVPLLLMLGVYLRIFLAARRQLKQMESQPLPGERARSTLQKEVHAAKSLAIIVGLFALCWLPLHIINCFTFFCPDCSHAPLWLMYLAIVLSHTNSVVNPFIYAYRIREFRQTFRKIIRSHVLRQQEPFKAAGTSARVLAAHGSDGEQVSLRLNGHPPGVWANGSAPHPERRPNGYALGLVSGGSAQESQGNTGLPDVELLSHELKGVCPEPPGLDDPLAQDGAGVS

Adenosine receptor A2b = target: T5, Adenosine receptor A2b (Homo sapiens, UniProt P29275); test: Displacement of [3H]PSB-603 from human A2B receptor expressed in CHO cell membrane; type: cell membranes
T5 sequence (P29275 whole entry): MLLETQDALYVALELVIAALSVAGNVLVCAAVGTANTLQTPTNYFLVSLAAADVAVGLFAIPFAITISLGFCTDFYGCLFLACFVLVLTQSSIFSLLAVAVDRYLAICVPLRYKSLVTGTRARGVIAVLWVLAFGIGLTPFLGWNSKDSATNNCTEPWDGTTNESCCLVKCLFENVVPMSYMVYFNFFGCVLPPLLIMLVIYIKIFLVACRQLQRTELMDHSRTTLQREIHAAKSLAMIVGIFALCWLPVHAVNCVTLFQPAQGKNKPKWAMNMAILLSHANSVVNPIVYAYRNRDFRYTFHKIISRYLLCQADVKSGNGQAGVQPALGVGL

Adenosine receptor A2a [5] = target: Adenosine receptor A2a (Rattus norvegicus, UniProt P30543); test: Displacement of [3H]MSX from A2A receptor in rat brain striatum membranes measured after 30 mins by liquid scintillation counting method; type: cell membranes
Sequence of Adenosine receptor A2a (Rattus norvegicus, UniProt P30543) (P30543 whole entry): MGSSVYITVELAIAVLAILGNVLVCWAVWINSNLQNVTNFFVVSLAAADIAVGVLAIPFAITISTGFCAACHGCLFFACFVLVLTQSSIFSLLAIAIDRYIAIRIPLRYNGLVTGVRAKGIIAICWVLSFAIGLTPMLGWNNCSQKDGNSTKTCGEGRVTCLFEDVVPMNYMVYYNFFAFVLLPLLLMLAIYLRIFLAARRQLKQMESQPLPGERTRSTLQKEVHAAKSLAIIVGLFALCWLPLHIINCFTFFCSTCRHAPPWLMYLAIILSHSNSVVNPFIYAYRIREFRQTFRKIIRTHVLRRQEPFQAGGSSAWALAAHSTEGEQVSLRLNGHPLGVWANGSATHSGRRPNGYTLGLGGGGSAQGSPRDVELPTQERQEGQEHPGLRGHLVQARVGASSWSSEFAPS

| Ki (Adenosine receptor A3) [nM] | IC50 [1] [nM] | inhibition at 10 µM [2] [%] | IC50 [3] [nM] | Ki (Adenosine receptor A1) [nM] | Ki (Adenosine receptor A2a [4]) [nM] | Ki (Adenosine receptor A2b) [nM] | Ki (Adenosine receptor A2a [5]) [nM] | Compound |
| --- | --- | --- | --- | --- | --- | --- | --- | --- |
| > 10000 | > 10000 | 4 | 251 | ≥ 10000 | 8860 | > 1000 | 557 | Cn1c(=O)c2c(nc3n2CCN(c2cccc(Cl)c2)C3)n(C)c1=O |
| 14000 | > 10000 | 14 | 100 | 393 | 595 | > 300 | 510 | Cn1c(=O)c2c(nc3n2CCN([C@@H]2CCCc4ccccc42)C3)n(C)c1=O |
